Publication PMC7558026, “Exploring and applying the substrate promiscuity of a C-glycosyltransferase in the chemo-enzymatic synthesis of bioactive C-glycosides” (Nature Communications, 2020)
Changes are numbered by the printed parent chain. Several values for one entry are separate records, joined by “and”; a condition that tells them apart may be missing. Identical values can stand only once. Blank lines part the entries; values can stand above or below the molecule they belong to.

How the values were obtained:
AbCGT = AbCGT (Aloe vera, UniProt A0A7G9P699); assay: Glycosyltransferase activity assay, purified AbCGT (wild type) with aglycon acceptors and UDP-Glc; type: biochemical, Aloe barbadensis; conditions: for conversion rates, O,N,S-glycosylation / conversion rates, di-C-glycosylation / conversion rates, mono-C-glycosylation: aglycon acceptor with UDP-Glc, pH 7.4, 30 °C, up to 12 h, Reaction-1 to -3
Protocol: Due to the instability of some acceptors in the buffer of pH 11.0, the reactions were performed under the physiological conditions (pH 7.4, 30 °C) to compare the catalytic activities of AbGT27 with different substrates under the same conditions. The reactions were performed at 30 °C for up to 12 h and terminated by the addition of 200 μL of ice-cold methanol. Subsequently, samples were centrifuged at 15,000 × g for 30 min to collect the supernatant, and aliquots were analyzed by HPLC-UV/ESIMS. […] The gradient programs were used for the analysis of the reactions (Supplementary Table 6). The conversion rates of the enzyme reactions were calculated from peak areas of glycosylated products and substrates as analyzed by HPLC. To facilitate inferential statistical analysis, three parallel assays were routinely performed; the means ± SD from triplicate analyses are reported here.

AbCGT V183D = biological target: T1, AbCGT V183D (Aloe vera, UniProt A0A7G9P699, V183D); assay: Glycosyltransferase activity of AbCGT variant V183D; type: biochemical, Aloe barbadensis
T1 sequence (A0A7G9P699 1-470 V183D): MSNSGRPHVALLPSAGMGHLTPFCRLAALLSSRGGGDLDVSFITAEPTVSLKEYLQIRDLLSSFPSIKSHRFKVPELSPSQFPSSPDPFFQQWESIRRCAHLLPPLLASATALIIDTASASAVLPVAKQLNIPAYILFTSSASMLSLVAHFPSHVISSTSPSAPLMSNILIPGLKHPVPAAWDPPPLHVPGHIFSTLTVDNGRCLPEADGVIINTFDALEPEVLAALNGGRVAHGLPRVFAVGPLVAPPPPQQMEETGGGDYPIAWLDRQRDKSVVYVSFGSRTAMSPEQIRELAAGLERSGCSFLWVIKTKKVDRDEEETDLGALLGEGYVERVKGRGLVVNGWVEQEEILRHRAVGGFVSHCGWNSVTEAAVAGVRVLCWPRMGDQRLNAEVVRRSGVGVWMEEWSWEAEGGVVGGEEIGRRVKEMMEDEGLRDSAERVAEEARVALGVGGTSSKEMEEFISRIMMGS
Protocol: (§1) The reaction mixture contained 0.5 mM sugar donors (1.0 mM for di-glycosylation), 0.25 mM aglycons, 50 mM Tris-HCl (pH 7.4), and 50‒100 μg of purified AbCGT in a final volume of 100 μL. Due to the instability of some acceptors in the buffer of pH 11.0, the reactions were performed under the physiological conditions (pH 7.4, 30 °C) to compare the catalytic activities of AbGT27 with different substrates under the same conditions. The reactions were performed at 30 °C for up to 12 h and terminated by the addition of 200 μL of ice-cold methanol. Subsequently, samples were centrifuged at 15,000 × g for 30 min to collect the supernatant, and aliquots were analyzed by HPLC-UV/ESIMS. HPLC analysis was performed on a Shiseido CAPCELL PAK C18 MG III column (250 mm × 4.6 mm I.D., 5 μm, Shiseido Co., Ltd., Japan) at a flow rate of 1 mL min^‒1. The mobile phase was a gradient elution of solvents A (0.1% formic acid aqueous solution) and B (methanol). The gradient programs were used for the analysis of the reactions (Supplementary Table 6). The conversion rates of the enzyme reactions were calculated from peak areas of glycosylated products and substrates as analyzed by HPLC. To facilitate inferential statistical analysis, three parallel assays were routinely performed; the means ± SD from triplicate analyses are reported here.
(§2) Site-saturation mutagenesis of AbCGT at residue 183 was performed by PCR using pET28a-AbCGT as a template and the corresponding degenerate primers, which are listed in Supplementary Table 5. PCR products were purified and transformed into Trans1-T1 (DE3) E. coli. The sequences of pET28a-AbCGT mutants were confirmed by sequencing, and transformed into Transetta (DE3) E. coli for heterologous expression following protein purification.

AbCGT V183E = biological target: T2, AbCGT V183E (Aloe vera, UniProt A0A7G9P699, V183E); assay: Glycosyltransferase activity of AbCGT variant V183E; type: biochemical, Aloe barbadensis
T2 sequence (A0A7G9P699 1-470 V183E): T1 sequence (A0A7G9P699 1-470 V183D) with D183E
Protocol: as §1, §2

SGLT2 = biological target: T3, SGLT2 (Homo sapiens, UniProt P31639); assay: 1-NBDG uptake in HEK293 cells stably expressing SGLT2; type: cell-based; conditions: HEK293, compound at 10 μM; triplicate; read-out: SGLT2 inhibitory rates
T3 construct: Human full-length SGLT2 cDNA (NM_003041.3) was synthesized; expressed in transfected cells; host or cells: HEK293, retroviral transduction with pMSCVpuro-SGLT2, puromycin selected
T3 sequence (P31639 1-672): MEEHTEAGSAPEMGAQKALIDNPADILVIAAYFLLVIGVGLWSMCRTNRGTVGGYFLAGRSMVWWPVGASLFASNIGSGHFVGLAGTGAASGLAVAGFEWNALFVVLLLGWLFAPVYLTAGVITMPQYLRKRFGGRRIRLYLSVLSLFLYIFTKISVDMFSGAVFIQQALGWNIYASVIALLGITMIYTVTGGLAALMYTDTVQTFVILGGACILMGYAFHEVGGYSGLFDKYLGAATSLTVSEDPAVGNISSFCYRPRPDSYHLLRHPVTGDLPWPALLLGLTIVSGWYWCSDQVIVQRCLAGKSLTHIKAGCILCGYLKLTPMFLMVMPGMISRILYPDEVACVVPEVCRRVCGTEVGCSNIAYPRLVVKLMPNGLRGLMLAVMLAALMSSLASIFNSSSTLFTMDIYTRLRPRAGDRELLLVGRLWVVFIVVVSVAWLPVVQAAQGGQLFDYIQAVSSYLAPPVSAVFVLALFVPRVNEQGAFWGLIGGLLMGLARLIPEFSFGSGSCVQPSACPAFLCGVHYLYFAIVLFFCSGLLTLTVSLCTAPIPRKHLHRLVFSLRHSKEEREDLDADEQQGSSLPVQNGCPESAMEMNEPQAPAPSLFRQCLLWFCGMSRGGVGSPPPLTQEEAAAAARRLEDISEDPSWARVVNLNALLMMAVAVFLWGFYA

Chain of AbCGT (A0A7G9P699 entry or part of it): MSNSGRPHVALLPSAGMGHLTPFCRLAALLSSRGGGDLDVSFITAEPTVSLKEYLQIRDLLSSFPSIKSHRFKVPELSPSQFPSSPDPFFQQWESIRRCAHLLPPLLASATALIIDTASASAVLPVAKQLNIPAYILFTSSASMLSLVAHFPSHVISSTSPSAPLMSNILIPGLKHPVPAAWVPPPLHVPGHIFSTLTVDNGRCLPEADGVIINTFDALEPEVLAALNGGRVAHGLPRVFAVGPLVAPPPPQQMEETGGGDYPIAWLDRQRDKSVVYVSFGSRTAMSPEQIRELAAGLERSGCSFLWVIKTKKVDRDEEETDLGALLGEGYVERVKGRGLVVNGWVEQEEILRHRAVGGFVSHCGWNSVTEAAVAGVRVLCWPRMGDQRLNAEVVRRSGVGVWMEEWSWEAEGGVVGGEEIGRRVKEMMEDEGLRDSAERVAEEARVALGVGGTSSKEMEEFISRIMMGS

SMILES: COc1cc(O)c(C(C)=O)c(OC)c1 [Compound 14]
conversion rates, O,N,S-glycosylation (AbCGT): 2% and 1.9% | conversion rates, di-C-glycosylation (AbCGT): 0% | conversion rates, mono-C-glycosylation (AbCGT): 0% | WT/yield of C-glycoside(%) (AbCGT; reaction-1): 0% | WT/yield of O-glycoside(%) (AbCGT; reaction-1): 1.5% | WT/yield of C-glycoside(%) (AbCGT; reaction-2): 0% | WT/yield of O-glycoside(%) (AbCGT; reaction-2): 1.6% | WT/yield of C-glycoside(%) (AbCGT; reaction-3): 0% | WT/yield of O-glycoside(%) (AbCGT; reaction-3): 2.8% | V183D/yield of C-glycoside(%) (AbCGT V183D; reaction-1): 0% | V183D/yield of O-glycoside(%) (AbCGT V183D; reaction-1): 0% | V183D/yield of C-glycoside(%) (AbCGT V183D; reaction-2): 0% | V183D/yield of O-glycoside(%) (AbCGT V183D; reaction-2): 0% | V183D/yield of C-glycoside(%) (AbCGT V183D; reaction-3): 0% | V183D/yield of O-glycoside(%) (AbCGT V183D; reaction-3): 0% | V183E/yield of C-glycoside(%) (AbCGT V183E; reaction-1): 8% | V183E/yield of O-glycoside(%) (AbCGT V183E; reaction-1): 0% | V183E/yield of C-glycoside(%) (AbCGT V183E; reaction-2): 7.9% | V183E/yield of O-glycoside(%) (AbCGT V183E; reaction-2): 0% | V183E/yield of C-glycoside(%) (AbCGT V183E; reaction-3): 7.5% | V183E/yield of O-glycoside(%) (AbCGT V183E; reaction-3): 0%

SMILES: O=C(CCc1ccc(O)cc1)c1c(O)cc(O)c([C@@H]2O[C@H](CO)[C@@H](O)[C@H](O)[C@H]2O)c1O [Compound 17a]
inhibition at 10 µM (SGLT2): 52.2%

SMILES: O=C(CCc1ccc(O)cc1)c1c(O)c([C@@H]2O[C@H](CO)[C@@H](O)[C@H](O)[C@H]2O)c(O)c([C@@H]2O[C@H](CO)[C@@H](O)[C@H](O)[C@H]2O)c1O [Compound 17aa]
inhibition at 10 µM (SGLT2): 2.8%

SMILES: O=C(CCc1ccc(O)cc1)c1c(O)cc(O)c(C2OC(CO)C(O)C(O)C2O)c1O [Compound 17b, phloretin-3′-C-β-D-galactoside]
inhibition at 10 µM (SGLT2): -3.1%

SMILES: O=C(CCc1ccc(O)cc1)c1c(O)cc(O)c(C2OCC(O)C(O)C2O)c1O [Compound 17c, phloretin-3′-C-β-D-xyloside]
inhibition at 10 µM (SGLT2): 1.7%

SMILES: COc1ccc(Cc2c(O)cc(O)c([C@@H]3O[C@H](CO)[C@@H](O)[C@H](O)[C@H]3O)c2O)cc1OC [Compound 20a]
inhibition at 10 µM (SGLT2): 13.6%

SMILES: COc1ccc(CCc2ccc(O)c([C@@H]3O[C@H](CO)[C@@H](O)[C@H](O)[C@H]3O)c2O)cc1 [Compound 21a]
inhibition at 10 µM (SGLT2): 22.7%

SMILES: Oc1cc(O)cc(OCCCCCCc2ccccc2)c1 [Compound 22]
conversion rates, O,N,S-glycosylation (AbCGT): 33% and 31.4% and 25.1% | conversion rates, di-C-glycosylation (AbCGT): 0% | conversion rates, mono-C-glycosylation (AbCGT): 8.5% and 9.9% and 11.3% | WT/yield of C-glycoside(%) (AbCGT; reaction-1): 9.6% | WT/yield of O-glycoside(%) (AbCGT; reaction-1): 28.2% | WT/yield of C-glycoside(%) (AbCGT; reaction-2): 11% | WT/yield of O-glycoside(%) (AbCGT; reaction-2): 26.9% | WT/yield of C-glycoside(%) (AbCGT; reaction-3): 9.5% | WT/yield of O-glycoside(%) (AbCGT; reaction-3): 34.6% | V183D/yield of C-glycoside(%) (AbCGT V183D; reaction-1): 0% | V183D/yield of O-glycoside(%) (AbCGT V183D; reaction-1): 0% | V183D/yield of C-glycoside(%) (AbCGT V183D; reaction-2): 0% | V183D/yield of O-glycoside(%) (AbCGT V183D; reaction-2): 0% | V183D/yield of C-glycoside(%) (AbCGT V183D; reaction-3): 0% | V183D/yield of O-glycoside(%) (AbCGT V183D; reaction-3): 0% | V183E/yield of C-glycoside(%) (AbCGT V183E; reaction-1): 0% | V183E/yield of O-glycoside(%) (AbCGT V183E; reaction-1): 0% | V183E/yield of C-glycoside(%) (AbCGT V183E; reaction-2): 0% | V183E/yield of O-glycoside(%) (AbCGT V183E; reaction-2): 0% | V183E/yield of C-glycoside(%) (AbCGT V183E; reaction-3): 0% | V183E/yield of O-glycoside(%) (AbCGT V183E; reaction-3): 0%

SMILES: OCC1OC(c2c(O)cc(O)c(Cc3ccccc3)c2O)C(O)C(O)C1O (stereo not drawn) [Compound 38a]
inhibition at 10 µM (SGLT2): 76.4%

SMILES: OCC1OC(c2c(O)cc(O)c(CCc3ccccc3)c2O)C(O)C(O)C1O (stereo not drawn) [Compound 39a]
inhibition at 10 µM (SGLT2): 23.6%

SMILES: OCC1OC(c2c(O)cc(O)c(Cc3ccsc3)c2O)C(O)C(O)C1O (stereo not drawn) [Compound 42a]
inhibition at 10 µM (SGLT2): 68.5%

SMILES: OCC1OC(c2c(O)cc(O)c(CCc3c[nH]c4ccccc34)c2O)C(O)C(O)C1O (stereo not drawn) [Compound 43a]
inhibition at 10 µM (SGLT2): 20.4%

Continued, values first:

inhibition at 10 µM (SGLT2): 85.4%
SMILES: OCC1OC(c2c(O)cc(O)c(Cc3ccc(F)cc3)c2O)C(O)C(O)C1O (stereo not drawn) [Compound 48a]

inhibition at 10 µM (SGLT2): 18.6%
SMILES: OCC1OC(c2c(O)cc(O)c(CCc3ccc(O)cc3)c2O)C(O)C(O)C1O (stereo not drawn) [Compound 51a]

inhibition at 10 µM (SGLT2): 36.7%
SMILES: OCC1OC(c2c(O)cc(O)c(CCc3ccc4c(c3)CCO4)c2O)C(O)C(O)C1O (stereo not drawn) [Compound 52a]

inhibition at 10 µM (SGLT2): 24.3%
SMILES: OCC1OC(c2c(O)cc(O)c(CCc3ccc(F)cc3)c2O)C(O)C(O)C1O (stereo not drawn) [Compound 53a]

inhibition at 10 µM (SGLT2): 62.5%
SMILES: OCC1OC(c2c(O)cc(O)c(CCc3ccc(Cl)cc3)c2O)C(O)C(O)C1O (stereo not drawn) [Compound 54a]
